The test system of series [1] is B-Raf 600E cells. Nature of the series: 4-day proliferation assay, B-Raf 600E NIH-3T3 cells. The note with it: 2, 3, or 4 nM romidepsin. The series is classed as cell-based, mouse. Here is the method: A series of transformed NIH-3T3 cell likes were generated and a proliferation assay was performed in the presence of 2, 3, or 4 nM romidepsin. FIG. 23 illustrates the transformed morphology of the cells. FIG. 24 presents graphs of cell proliferation.

Series [2] in a line: Animal weight and drug toxicity, PANC-1 study. The source says: Model Information—Female nude mice (nu/nu) between 5 and 6 weeks of age weighing approximately 20 grams were obtained from Harlan, Inc. (Madison, Wis.). PANC-1, obtained from the ATCC, is a pancreas tumor cell line originating from a person^(1-2). BxPC-3, obtained from the American Type Culture Collection (ATCC), is a pancreas tumor cell line originating from a person^(3-4). PANC-1 Study: Animals were implanted subcutaneously (SC) by trocar with fragments of PANC-1 harvested from SC growing tumors in nude mice hosts. When tumors grew to approximately 135 cubic millimeters (mm^3) in size (17 days following implantation, animals were pair-matched by tumor size into treatment and control groups; each treatment group contained nine mice. BxPC-3 Study: Animals were implanted subcutaneously (SC) by trocar with fragments of BxPC-3 harvested from SC growing tumors in nude mice hosts. When tumors grew to approximately 85 cubic millimeters (mm^3) in size (19 days following implantation), animals were pair-matched by tumor size into treatment and control groups; each treatment group contained nine mice. Animals in both studies were ear-tagged and followed individually throughout the experiment.
Study Design and Dosing—Initial doses were administered on Day 1 following pair-matching; both experiments were carried out as tumor growth inhibition (TGI) studies. Animals were dosed intravenously (IV) via tail vein with FK228 once every four days for three treatments (Q4Dx3) or by intraperitoneal (IP) injection with gemcitabine once every three days for four treatments (Q3Dx4), either alone or in combination, at the doses listed below (Table 1). To serve as a negative control, FK228 vehicle (2% ethanol, 8% propylene glycol, 90% 0.9% saline) was injected on a Q4Dx3 schedule.
Animal Weights—Individual and group mean weights±SD and percent weight change through Day 25 (PANC-1) or Day 29 (BxPC-3) were recorded twice weekly until study completion beginning Day 1. Final group mean weights±SD and group nadir values are reported; weight data from individual animals experiencing technical or drug-related deaths was censored from final group calculations.
Moribundity/Mortality—Animals were observed twice weekly for general moribundity and daily for mortality. Animal deaths were assessed as drug-related or technical based on factors including gross observation and weight loss; reported animal death information includes type, number, and day of death for each group.

In series [3] the test system is PANC-1 human pancreatic tumor xenograft. Put plainly: PANC-1 human pancreatic tumor xenograft tumor growth inhibition study (Example 3). The following applies: for % TGI / Final tumor volume mean ± SEM: Day 25. The series is classed as in vivo, female nude mice (nu/nu). The source says: (Madison, Wis.). […] Tumor measurements were converted to cubic millimeter tumor volume using the formula^(5): […] TGI values for each treatment group are reported at study completion; these calculations are based on the final study day. […] Individual mice lacking palpable tumors were classified as undergoing complete regression (CR). Animals experiencing partial or complete tumor regressions were censored from TGI calculations. However, data from these animals was included in statistical analysis calculations. In addition, weight data from these animals was included in daily and final group calculations. Tumor Necrosis-Degree of tumor necrosis was rated at each tumor measurement using the following arbitrary index: […]
For orientation: In xenograft studies the graft and the host belong to different species.

[4] abbreviates: PANC-1 study, FK228 2.5 mg/kg IV Q4Dx3.
[5] abbreviates: PANC-1 study, FK228 2.5 mg/kg IV Q4Dx3, 2.5 mg/kg.
Where [6] appears, read: PANC-1 study, FK228 5 mg/kg IV Q4Dx3.
Setting [7] is: PANC-1 study, FK228 5 mg/kg IV Q4Dx3, 5 mg/kg.

Where “and” joins values, the source holds several entries; their conditions need not be identical. Equal entries are not always repeated.

For `C/C=C1\NC(=O)[C@H]2CSSCC/C=C/[C@H](CC(=O)N[C@H](C(C)C)C(=O)N2)OC(=O)[C@H](C(C)C)NC1=O` [FK228, romidepsin], in series [1], the potency on proliferation result is on record as “not potent”. Also, the “Final weight data % change” value in series [2] (Day 25, FK228 2.5 mg/kg IV Q4Dx3) is given as “+8%”; in series [2] (Day 25, FK228 5 mg/kg IV Q4Dx3), “+9%”. Moreover, the “Final weight data mean ± SD” value came to 23±2 G in series [2] (Day 25, FK228 2.5 mg/kg IV Q4Dx3, 2.5 mg/kg) and 25±2 G in series [2] (Day 25, FK228 5 mg/kg IV Q4Dx3, 5 mg/kg). For the same compound, the “Weight nadir % change” value is given as −9% in series [2] (FK228 2.5 mg/kg IV Q4Dx3) and −12% in series [2] (FK228 5 mg/kg IV Q4Dx3). The Weight nadir day in series [2] (FK228 2.5 mg/kg IV Q4Dx3) and in series [2] (FK228 5 mg/kg IV Q4Dx3) was 11 throughout. The Drug deaths total in series [2] (FK228 2.5 mg/kg IV Q4Dx3, 2.5 mg/kg) is 0/9 and 0; in series [2] (FK228 5 mg/kg IV Q4Dx3, 5 mg/kg) it was 0/9 and 0. Moreover, the “% TGI” value in series [3] (setting [4]) and in series [3] (setting [6]) was 26% throughout. Moreover, the “Final tumor volume mean ± SEM” value in series [3] (setting [5]) is 1688±290 MM^3; in series [3] (setting [7]), 1690±290 MM^3 and 1690 ± 331 MM^3. Moreover, the “Activity according to NCI standards” value in series [3] (setting [4]) and in series [3] (setting [6]) was “inactive” throughout. In addition, the Tumor necrosis in series [3] (setting [4]) was 1/9 animals reported slight tumor necrosis, 1/9 reported mild tumor necrosis, 2/9 reported moderate necrosis, and 1/9 reported severe necrosis; in series [3] (setting [6]) it was 2/9 animals reported slight tumor necrosis, and 1/9 reported moderate necrosis. For the same compound, the “#PR/CR” value in series [3] (setting [5]) is 0/9 and 0/0; in series [3] (setting [7]), 0/9 and 0/0. Moreover, in series [3] (PANC-1 study, at the evaluated doses and schedules), the “calculated TGI values” is recorded as “less than 58%”. The “antitumor activity (overall conclusion)” value in series [3] (ras-transformed PANC-1 model, all evaluated doses) is “some activity”.

The record behind these values is patent US9539303B2, “Treatment of Ras-expressing tumors” (Celgene Corporation, priority 2006, dated 2017).
